*1 amine or outer side, *2 acyl side, *3 side chain or, on linkers, in order; H or OH if unused. Where a SMILES comes first, the peptide text is derived from it. Bridges are numbered along the chain shown (N, C = ends). [ ]: non-standard residue; d: D form. The star is where a group is joined. ξ: configuration not given here. Phe(3-CF3) = N[C@@H](Cc1cccc(C(F)(F)F)c1)C(=O)O; Phe(4-COOH) = N[C@@H](Cc1ccc(C(=O)O)cc1)C(=O)O; d(γGlu) = O=C(O)[C@@H](CCC(=O)[*:2])N[*:1]; Bip = N[C@@H](Cc1ccc(-c2ccccc2)cc1)C(=O)O; NH(CH2)14COOH = O=C(O)CCCCCCCCCCCCCCN*; Phe(3-Me) = Cc1cccc(C[C@H](N)C(=O)O)c1; NH(CH2)12COOH = O=C(O)CCCCCCCCCCCCN*; NMeAEEA = CN(CCOCCOCC(=O)[*:2])[*:1]; Val(3-OH) = CC(C)(O)[C@H](N)C(=O)O; 4Pal = N[C@@H](Cc1ccncc1)C(=O)O; Cha = N[C@@H](CC1CCCCC1)C(=O)O; Cit = NC(=O)NCCC[C@H](N)C(=O)O; Ile(3ξ) = CCC(C)[C@H](N)C(=O)O; Thr(3ξ) = CC(O)[C@H](N)C(=O)O; Carboxymethyl = O=C(O)C*; NMeA = CN[C@@H](C)C(=O)O; Orn = NCCC[C@H](N)C(=O)O; Aun = NCCCCCCCCCCC(=O)O; Dab = NCC[C@H](N)C(=O)O; AEEA = NCCOCCOCC(=O)O

In one assay the target is T1, PD-1/PD-L1 interaction (PE-labeled human PD-L1-Ig binding to Jurkat cell line over-expressing human PD-1) (Homo sapiens, UniProt Q15116).
T1 construct: expressed in transfected cells; host or cells: Jurkat
T1 sequence (Q15116 25-288): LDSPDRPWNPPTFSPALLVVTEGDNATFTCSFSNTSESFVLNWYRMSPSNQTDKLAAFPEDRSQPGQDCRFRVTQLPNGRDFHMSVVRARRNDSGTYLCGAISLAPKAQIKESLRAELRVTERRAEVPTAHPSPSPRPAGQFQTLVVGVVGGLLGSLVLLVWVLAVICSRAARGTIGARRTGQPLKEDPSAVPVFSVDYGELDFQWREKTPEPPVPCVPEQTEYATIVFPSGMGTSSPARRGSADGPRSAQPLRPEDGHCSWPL
Kind of assay: Jurkat-PD-1 Cell Binding High-Content Screening Assay (CBA). As to conditions: Jurkat-hPD-1 cells, PE-labeled PD-L1-Ig 20 nM final; read-out: Jurkat HPD1 PDL1 IC50. Summed up:
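Read-out: high-content imaging of cell-bound PE fluorescence, with Hoechst 33342 nuclear counterstain after paraformaldehyde fixation. Before labeled ligand (20 nM final, 1 h) was added, compound sat on the cells for 2 h at 37 °C in DMEM/10% FCS.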
As usually defined, the IC50 is the point on the concentration scale where inhibition reaches its midpoint. Consider `CC(C)C[C@@H]1NC(=O)[C@H](Cc2c[nH]c3ccccc23)NC(=O)[C@H](CC(=O)O)NC(=O)[C@H](Cc2ccncc2)NC(=O)[C@H](Cc2ccc(OCC(=O)O)cc2)NC(=O)CSC[C@@H](C(=O)NCC(=O)NCCOCCOCC(=O)N[C@@H](CCCCN)C(=O)NCCCCCCCCCCC(=O)O)NC(=O)[C@H](CCCNC(N)=O)NC(=O)[C@H](C(C)C)NC(=O)[C@H](CC2CCCCC2)NC(=O)[C@H](CCN)NC(=O)[C@@H](CC(C)C)NC(=O)[C@H](C)N(C)C(=O)[C@H](C(C)C)NC(=O)[C@H](Cc2ccc(-c3ccccc3)cc2)NC1=O` [Example 2172] ({CH2CO}-Y(Carboxymethyl)[4Pal]DWL[Bip]V[NMeA][dL][Dab][Cha]V[Cit]CG[AEEA]K[Aun]-OH; thioether N-14), for which the IC50 came out at 13 nM.

With `CC(C)C[C@@H]1NC(=O)[C@H](Cc2c[nH]c3ccccc23)NC(=O)[C@H](CC(=O)O)NC(=O)[C@H](Cc2ccc(OCC(=O)O)cc2)NC(=O)[C@H](Cc2ccc(OCC(=O)O)cc2)NC(=O)CSC[C@@H](C(=O)NCCOCCOCC(=O)NCCCCCCCCCCC(=O)O)NC(=O)[C@H](CO)NC(=O)[C@H](C(C)(C)O)NC(=O)[C@H](CC2CCCCC2)NC(=O)[C@H](CCN)NC(=O)[C@@H](CC(C)C)NC(=O)[C@H](C)N(C)C(=O)[C@H](C(C)C)NC(=O)[C@H](Cc2ccc(-c3ccccc3)cc2)NC1=O` [Example 2444] ({CH2CO}-Y(Carboxymethyl)Y(Carboxymethyl)DWL[Bip]V[NMeA][dL][Dab][Cha][Val(3-OH)]SC[AEEA][Aun]-OH; thioether N-14), the concentration for half-maximal inhibition (IC50) turned out to be 40.4 nM.

As for `CC(C)C[C@@H]1NC(=O)[C@H](Cc2c[nH]c3ccccc23)NC(=O)[C@H](CC(=O)O)NC(=O)[C@H](Cc2ccc(C(=O)O)cc2)NC(=O)[C@H](Cc2ccc(OCC(=O)O)cc2)NC(=O)CSC[C@@H](C(=O)N[C@@H](CCN)C(=O)NCCCCCCCCCCC(=O)O)NC(=O)[C@H]([C@@H](C)O)NC(=O)[C@H](C(C)C)NC(=O)[C@H](CC2CCCCC2)NC(=O)[C@H](CCN)NC(=O)[C@@H](CC(C)C)NC(=O)[C@H](C)N(C)C(=O)[C@H](C(C)C)NC(=O)[C@H](Cc2ccc(-c3ccccc3)cc2)NC1=O` [Example 1326] ({CH2CO}-Y(Carboxymethyl)[Phe(4-COOH)]DWL[Bip]V[NMeA][dL][Dab][Cha]VTC[Dab][Aun]-OH; thioether N-14), the IC50 was 19.8 nM.

With `CC(C)C[C@@H]1NC(=O)[C@H](Cc2c[nH]c3ccccc23)NC(=O)[C@H](CC(=O)O)NC(=O)[C@H](Cc2ccc(C(=O)O)cc2)NC(=O)[C@H](C(C)O)NC(=O)CSC[C@@H](C(=O)N[C@@H](C)C(=O)N[C@@H](CCN)C(=O)NCCCCCCCCCCCCCCC(=O)O)NC(=O)[C@H](CO)NC(=O)[C@H](C(C)C)NC(=O)[C@H](CC2CCCCC2)NC(=O)[C@H](CCN)NC(=O)[C@@H](CC(C)C)NC(=O)[C@H](C)N(C)C(=O)[C@H](C(C)C)NC(=O)[C@H](Cc2ccc(-c3ccccc3)cc2)NC1=O` (stereo partly drawn) [Example 2005] ({CH2CO}-[Thr(3ξ)][Phe(4-COOH)]DWL[Bip]V[NMeA][dL][Dab][Cha]VSCA[Dab]-{NH(CH2)14COOH}; thioether N-14), the IC50 came out at 223 nM.

In the case of `CCC(C)[C@@H]1NC(=O)[C@H](Cc2ccc(-c3ccccc3)cc2)NC(=O)[C@H](C(C)C)NC(=O)[C@H](Cc2c[nH]c3ccccc23)NC(=O)[C@H](CC(=O)O)NC(=O)[C@H](Cc2ccc(OCC(=O)O)cc2)NC(=O)[C@H](C(C)O)NC(=O)CSC[C@@H](C(=O)N[C@H](CC(N)=O)C(=O)NCCCCCCCCCCC(=O)O)NC(=O)[C@H](CO)NC(=O)[C@H](C(C)C)NC(=O)[C@H](CC2CCCCC2)NC(=O)[C@H](CCN)NC(=O)[C@@H](CC(C)C)NC(=O)[C@H](C)N(C)C1=O` (stereo partly drawn) [Example 2209] ({CH2CO}-[Thr(3ξ)]Y(Carboxymethyl)DWV[Bip][Ile(3ξ)][NMeA][dL][Dab][Cha]VSC[dN][Aun]-OH; thioether N-14), the IC50 came out at 15.6 nM.

For the compound `CC[C@H](C)[C@@H]1NC(=O)[C@H](Cc2ccc(-c3ccccc3)cc2)NC(=O)[C@H](CC(C)C)NC(=O)[C@H](Cc2c[nH]c3ccccc23)NC(=O)[C@H](CC(=O)O)NC(=O)[C@H](Cc2ccc(C(=O)O)cc2)NC(=O)[C@H](Cc2ccc(OCC(=O)O)cc2)NC(=O)CSC[C@@H](C(=O)N[C@@H](CCCN)C(=O)NCCOCCOCC(=O)NCCCCCCCCCCC(=O)O)NC(=O)[C@H](CO)NC(=O)[C@H](C(C)C)NC(=O)[C@H](CC2CCCCC2)NC(=O)[C@H](CCN)NC(=O)[C@@H](CC(C)C)NC(=O)[C@H](C)N(C)C1=O` [Example 1078] ({CH2CO}-Y(Carboxymethyl)[Phe(4-COOH)]DWL[Bip]I[NMeA][dL][Dab][Cha]VSC[Orn][AEEA][Aun]-OH; thioether N-14), the half-inhibitory concentration (IC50) is 16.1 nM.

Regarding `Cc1cccc(C[C@@H]2NC(=O)[C@H](CC(=O)O)NC(=O)[C@H](Cc3ccc(OCC(=O)O)cc3)NC(=O)[C@H](C(C)O)NC(=O)CSC[C@@H](C(=O)N(C)CCOCCOCC(=O)NCCCCCCCCCCC(=O)O)NC(=O)[C@H](C(C)O)NC(=O)[C@H](C(C)C)NC(=O)[C@H](CC3CCCCC3)NC(=O)[C@H](CCN)NC(=O)[C@@H](CC(C)C)NC(=O)[C@H](C)N(C)C(=O)[C@H](C(C)C)NC(=O)[C@H](Cc3ccc(-c4ccccc4)cc3)NC(=O)[C@H](C(C)C)NC2=O)c1` (stereo partly drawn) [Example 2363] ({CH2CO}-[Thr(3ξ)]Y(Carboxymethyl)D[Phe(3-Me)]V[Bip]V[NMeA][dL][Dab][Cha]V[Thr(3ξ)]C[NMeAEEA][Aun]-OH; thioether N-14), the IC50 turned out to be 21.9 nM.

Take `CC(C)C[C@@H]1NC(=O)[C@H](Cc2c[nH]c3ccccc23)NC(=O)[C@H](CC(=O)O)NC(=O)[C@H](Cc2ccncc2)NC(=O)[C@H](Cc2ccc(OCC(=O)O)cc2)NC(=O)CSC[C@@H](C(=O)NCCOCCOCC(=O)NCCCCCCCCCCC(=O)O)NC(=O)[C@H](CO)NC(=O)[C@H](C(C)C)NC(=O)[C@H](CC2CCCCC2)NC(=O)[C@H](CCN)NC(=O)[C@@H](CC(C)C)NC(=O)[C@H](C)N(C)C(=O)[C@H](C(C)C)NC(=O)[C@H](Cc2ccc(-c3ccccc3)cc2)NC1=O` [Example 1081] ({CH2CO}-Y(Carboxymethyl)[4Pal]DWL[Bip]V[NMeA][dL][Dab][Cha]VSC[AEEA][Aun]-OH; thioether N-14): the IC50 turned out to be 10.1 nM.

Turning to `CC(C)C[C@@H]1NC(=O)[C@H](Cc2c[nH]c3ccccc23)NC(=O)[C@H](CC(=O)O)NC(=O)[C@H](Cc2ccc(C(=O)O)cc2)NC(=O)[C@H](Cc2ccc(OCC(=O)O)cc2)NC(=O)CSC[C@@H](C(=O)NCC(=O)N[C@@H](CCCCN)C(=O)NCCCCCCCCCCC(=O)O)NC(=O)[C@H](CO)NC(=O)[C@H](C(C)C)NC(=O)[C@H](CC2CCCCC2)NC(=O)[C@H](CCN)NC(=O)[C@@H](CC(C)C)NC(=O)[C@H](C)N(C)C(=O)[C@H](C(C)C)NC(=O)[C@H](Cc2ccc(-c3ccccc3)cc2)NC1=O` [Example 1039] ({CH2CO}-Y(Carboxymethyl)[Phe(4-COOH)]DWL[Bip]V[NMeA][dL][Dab][Cha]VSCGK[Aun]-OH; thioether N-14), the IC50 was 12.8 nM.

Still in this assay, the particulars now being: PE-labeled PD-L1-Ig 20 nM final, Jurkat-hPD-1 cells; read-out: Jurkat HPD1 PDL1 IC50.
Regarding `CC(=O)NCCCC[C@@H]1NC(=O)[C@H](C(C)(C)O)NC(=O)[C@H](CC2CCCCC2)NC(=O)[C@H](CCN)NC(=O)[C@@H](CC(C)C)NC(=O)[C@H](C)N(C)C(=O)[C@H](CCC(N)=O)NC(=O)[C@H](Cc2ccc(-c3ccccc3)cc2)NC(=O)[C@H](Cc2ccc(C(=O)O)cc2)NC(=O)[C@H](Cc2cccc(C(F)(F)F)c2)NC(=O)[C@H](CC(=O)O)NC(=O)[C@H](Cc2ccc(OCC(=O)O)cc2)NC(=O)[C@H](Cc2ccc(OCC(=O)O)cc2)NC(=O)CSC[C@@H](C(=O)N[C@@H](CCN)C(=O)NCCOCCOCC(=O)N[C@H](CCC(=O)N[C@H](CCC(=O)NCCOCCOCC(=O)NCCCCCCCCCCCCCCC(=O)O)C(=O)O)C(=O)O)NC1=O` [Example 2655] ({CH2CO}-Y(Carboxymethyl)Y(Carboxymethyl)D[Phe(3-CF3)][Phe(4-COOH)][Bip]Q[NMeA][dL][Dab][Cha][Val(3-OH)]K(Ac)C[Dab][AEEA][d(γGlu)][d(γGlu)][AEEA]-{NH(CH2)14COOH}; thioether N-14), the IC50 was determined as 584 nM.

Consider `CC(C)C[C@H]1NC(=O)[C@H](C)N(C)C(=O)[C@H](Cc2ccc(C(=O)O)cc2)NC(=O)[C@H](Cc2ccc(-c3ccccc3)cc2)NC(=O)[C@H](Cc2ccc(C(=O)O)cc2)NC(=O)[C@H](Cc2cccc(C(F)(F)F)c2)NC(=O)[C@H](CC(=O)O)NC(=O)[C@H](Cc2ccc(C(=O)O)cc2)NC(=O)[C@H](C(C)O)NC(=O)CSC[C@@H](C(=O)N[C@@H](CCN)C(=O)NCCCCCCCCCCCCC(=O)O)NC(=O)[C@H](CO)NC(=O)[C@H](C(C)(C)O)NC(=O)[C@H](CC2CCCCC2)NC(=O)[C@H](CCN)NC1=O` (stereo partly drawn) [Example 2568] ({CH2CO}-[Thr(3ξ)][Phe(4-COOH)]D[Phe(3-CF3)][Phe(4-COOH)][Bip][Phe(4-COOH)][NMeA][dL][Dab][Cha][Val(3-OH)]SC[Dab]-{NH(CH2)12COOH}; thioether N-14), for which the half-inhibitory concentration (IC50) was determined as 22.8 nM.

`CC(C)C[C@H]1NC(=O)[C@H](C)N(C)C(=O)[C@H](CCC(N)=O)NC(=O)[C@H](Cc2ccc(-c3ccccc3)cc2)NC(=O)[C@H](C(C)C)NC(=O)[C@H](Cc2c[nH]c3ccccc23)NC(=O)[C@H](CC(=O)O)NC(=O)[C@H](Cc2ccc(OCC(=O)O)cc2)NC(=O)[C@H](Cc2ccncc2)NC(=O)CSC[C@@H](C(=O)N[C@@H](CCN)C(=O)NCCOCCOCC(=O)NCCCCCCCCCCC(=O)O)NC(=O)[C@H](CCC(=O)O)NC(=O)[C@H](C(C)(C)O)NC(=O)[C@H](CC2CCCCC2)NC(=O)[C@H](CCN)NC1=O` [Example 2494] ({CH2CO}-[4Pal]Y(Carboxymethyl)DWV[Bip]Q[NMeA][dL][Dab][Cha][Val(3-OH)]EC[Dab][AEEA][Aun]-OH; thioether N-14): the IC50 is 9.2 nM.
